According to patent publication US20100204149A1, “USE OF OCTREOTIDE AS A THERAPEUTIC AGENT” (priority 2007, published 2010):

How the values were obtained:
[1] = test system: HUVEC; test: Endothelial tube formation assay; type: cell-based, human; details: peptide 10 micrograms per ml, 20 hours
Protocol: The endothelial tube formation assay is based on the ability of endothelial cells to form three-dimensional capillary-like tubular structures when cultured on a gel of basement membrane extract. The endothelial tube formation assay represents a powerful model for studying inhibition and induction of angiogenesis. Pre-labeled HUVEC with Calcein AM were seeded in a 96-well culture plate coated with extracellular metrix (Chemicon international Cat. ECM625) and treated with test peptide—10 micrograms per ml—in full growth medium. […] control was vehicle only. The endothelial cells were allowed to form tubes for 20 hours and were then examined under an inverted fluorescent microscope. Duplicate wells for each treatment were photographed and quantitatively analyzed for an average tubule length using image analysis software ImageProPlus. Raw data were expressed as average tubule lengths in pixels ±standard deviation. Statistic p values were computed using the Student's t-test.

[2] = test system: RAW 264.7 cells; test: Phagocytosis assay with Fluorescein-labeled Escherichia coli; type: cell-based, mouse; details: peptide 10 micrograms per ml
Protocol: RAW 264.7 (Mouse leukaemic monocyte macrophage cell line) cells were obtained from ATCC and grown in RPMI 1640 medium containing 10% FBS. Cells were incubated in 12×75 mm tubes at 37° C. with test peptide—10 micrograms per ml—for 30 min prior to adding Fluorescein-labeled Escherichia coli bacteria as the agent to be ingested. After the cells were incubated for additional 60 min at 37° C. and allowed to ingest the Fluorescein-labeled Escherichia coli bacteria, cells were fixed with 1% paraformaldehyde. The samples were then analyzed by flow cytometry to determine the amount of phagocytosis as a function of brightness (the greater the phagocytic activity, the more fluorescence in the macrophage population). Data are reported as % positive and the mean fluorescence intensity (MFI) of positively stained cells.

[3] = test system: hepatitis B virus (HBV) ayw strain; test: HBV replication assay, secreted HBV DNA by TaqMan PCR; type: cell-based; details: HepG2-2.2.15; peptide 10 micrograms per ml; six days; HBV DNA in supernatant
[4] = test system: MRSA; test: Methicillin Resistant Staphylococcus Aureus (MRSA) assay; type: cell-based; details: peptide 10 micrograms per ml, read visually
Protocol: The antibacterial assay was conducted using clear, U-bottom 96-well microtiter plates. Cation-adjusted Mueller-Hinton Broth (MHB) was used for testing MRSA. The peptide of the invention (0.1 ml of each—10 micrograms per ml—) was dispensed into wells in duplicate. Then the wells were inoculated with 5×10^5 CFU/mL MRSA in 0.1 ml volume. For control purposes, each plate included 4 wells containing media without bacterial inoculum and 4 wells containing medium with inoculum but without peptide. The plates were incubated for 12 h at 37° C., and read visually 18-24 hours post-incubation. Growth control of MRSA was examined first to determine adequacy of media preparations and growth conditions. Acceptable growth is defined as ≧2 mm wide button of cells at the bottom of each sample well, or obvious turbidity in the culture supernatant. Test wells were examined and scored as positive/negative for activity. A positive score for activity is based on complete inhibition of macroscopic growth of the test MRSA.

[5] = test system: Human Peripheral Blood Mononuclear Cells (PBMC); details: B cell proliferation; peptide 10 micrograms per ml; 3 days
Protocol: Human Peripheral Blood Mononuclear Cells (PBMC) were obtained from normal human donors. The B cell proliferation was induced by stimulation of the cells with the B cell mitogen Staphylococcus aureus Cowans I (SAC) plus Interleukin-2, either in the absence (positive proliferation control), or in the presence of test peptide—10 micrograms per ml—to examine their effects on the B cell response. 10^5/well PBMC were plated in 96-well microtiter plates and assayed in duplicate with the peptide. Cell cultures were incubated at 37° C. for 3 days in a 5% CO2 incubator and were thereafter pulsed with 1 microCi/well ^3H-thymidine for additional 12 hours of culture. At the end of incubation time, the plates were harvested and the cells counted by liquid scintillation for the incorporation of ^3H-thymidine as a measure of B cell proliferation.

[6] = test system: HCMV strain AD169; test: HCMV plaque reduction assay in MRC-5 cells; type: cell-based; details: peptide 10 micrograms per ml, 7-10 days
Description: Ganciclovir was used as positive control.

[7] = Cytotoxicity testing in MRC-5 cells (CellTiter 96); type: cell-based; details: human, MRC-5 cells (embryonal lung fibroblasts); MRC-5 cells; 6 days incubation; read-out: % Cell viability
Protocol: For cytotoxicity testing, MRC-5 cells were seeded at 2,500 cells/well in 96 well plates using growth medium. […] The following day, peptide was added and tested in duplicates. After a 6 days incubation period, cell viability was measured using CellTiter 96 Solution (Promega). Plates were incubated for additional 4 hours at 37° C.

[8] = test system: Human A549 cells; test: Propidium iodide cell cycle assay; type: cell-based; details: peptide 10 micrograms per ml, 24 hours
Description: Human A549 cells (carcinomic human alveolar basal epithelial cells) were utilized in the experiments employing the Propidium iodide cell cycle assay. The eukaryotic cell cycle is a series of events that take place in a cell leading to its replication. The regulation of the cell cycle involves steps crucial to the cell, including detecting and repairing genetic damage, and provision of various checks to prevent uncontrolled cell division. The molecular events that control the cell cycle are ordered and directional; that is, each process occurs in a sequential fashion. The cell cycle consists of four distinct phases: G1 phase, S phase, G2 phase (collectively known as interphase) and M phase. M phase is itself composed of two tightly coupled processes: mitosis, in which the cell's chromosomes are divided between the two daughter cells, and cytokinesis, in which the cell's cytoplasm divides forming distinct cells. Activation of each phase is dependent on the proper progression and completion of the previous one. Cells that have temporarily or reversibly stopped dividing are said to have entered a state of quiescence called Go phase. The relatively brief M phase consists of nuclear division and cytoplasmic division. The first phase within interphase, from the end of the previous M phase till the beginning of DNA synthesis is called G1 (G indicating gap or growth). During this phase the biosynthetic activities of the cell resume at a high rate. This phase is marked by synthesis of various enzymes that are required in S phase, mainly those needed for DNA replication. The ensuing S phase starts when DNA synthesis commences; when it is complete, all of the chromosomes have been replicated. The cell then enters the G2 phase, which lasts until the cell enters mitosis. Significant protein synthesis occurs during this phase, mainly involving the production of microtubules, which are required during the process of mitosis. […]
Propidium iodide is an intercalating agent and a fluorescent molecule that can be used to stain DNA. […] After incubation for 40 min at 37° C., cells were analyzed in the FACS.

[9] = test system: macrophages from human PBMC; test: TNF alpha production assay in LPS-stimulated macrophages; type: cell-based; details: TNF alpha ELISA; peptide 10 micrograms per ml; lipopolysaccharide 200 ng/ml; overnight
Protocol: The macrophages were prepared by adherence of PBMC to the plastic wells of the plates. After 8 days in culture in the presence of recombinant human macrophage-colony stimulating factor at 2 ng/ml, differentiated macrophages were preincubated with test peptide—10 micrograms per ml—for 30 min, followed by in-well stimulation by the addition of lipopolysaccharide at a final concentration of 200 ng/ml. Not stimulated macrophages served as negative background control.
After overnight incubation, supernatants from the control and LPS-stimulated cultures were harvested and assayed for TNF alpha production employing a TNF alpha specific ELISA.

In the case of `C[C@@H](O)[C@@H]1NC(=O)[C@H](CCCCN)NC(=O)[C@@H](Cc2c[nH]c3ccccc23)NC(=O)[C@H](Cc2ccccc2)NC(=O)[C@@H](NC(=O)[C@H](N)Cc2ccccc2)CSSC[C@@H](C(=O)N[C@H](CO)[C@@H](C)O)NC1=O` [Octreotide, H-D-Phe-Cys-Phe-D-Trp-Lys-Thr-Cys-L-threoninol], the “% inhibition of tube formation” value [1] was 8%, the “% of control phagocytosis” value [2] was 105.9% and the “% inhibition of HBV replication in HEP G2 cells” value [3] was 13.4%. For the same compound, the “% inhibition” value [4] was 0.0%, the “% of SAC/IL2 induced control” value [5] was 115.3% and the “% plaque reduction” value [6] was 0.0%. The viability at 144 h [7] was 100%, the “Cell cycle analysis G0/G1” value [8] was 59.1 and the “Cell cycle analysis G2/M” value [8] was 9.2. The “Cell cycle analysis S” value [8] was 31.8 and the “% of LPS induction” value [9] was 105.8%.
